The target in one test is T1, MAGL (Homo sapiens, UniProt Q99685).
T1 sequence (Q99685 1-303): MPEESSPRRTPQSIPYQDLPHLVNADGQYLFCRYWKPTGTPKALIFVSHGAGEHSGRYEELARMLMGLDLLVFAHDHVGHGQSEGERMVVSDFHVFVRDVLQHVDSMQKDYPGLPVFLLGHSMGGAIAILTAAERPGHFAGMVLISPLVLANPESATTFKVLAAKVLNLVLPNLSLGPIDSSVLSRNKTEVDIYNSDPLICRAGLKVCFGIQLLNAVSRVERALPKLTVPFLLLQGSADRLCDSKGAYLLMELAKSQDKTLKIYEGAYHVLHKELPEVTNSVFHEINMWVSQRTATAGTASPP
Kind of test: In vitro competitive activity-based protein profiling, PC3 human cell membrane proteomes. The class given is biochemical. Set-up: endogenous in cells; host or cells: PC3 human cells (membrane proteome). As to conditions: 1 μM; human PC3 membrane proteome; read-out: MAGL % inh. 1 μM (human PC3). As for the experimental part: PC3 human cell membrane proteomes (50 μL, 2.0 mg/mL total protein concentration) were preincubated with varying concentrations of inhibitors at 37° C. After 30 min, the ABPP probe JW912-Bodipy (1.0 μL, 50 μM in DMSO) was added and the mixture was incubated for 30 min at room temperature. Reactions were quenched with SDS loading buffer (15 μL-4×) and run on SDS-PAGE. Following gel imaging, serine hydrolase activity was determined by measuring fluorescent intensity of gel bands corresponding to MAGL using ImageJ 1.43u software. Intensities were converted to percent enzyme activity by normalizing to DMSO controls. IC50 values were determined by fitting percent enzyme activities to a non-linear regression, 4-parameter, sigmoidal dose response function in Prism GraphPad.
As to `O=C(OC(C(F)(F)F)C(F)(F)F)N1CCC2(CC1)CC2C(=O)N1CCN(C2CC2)CC1` (racemic) [Example 34, 1,1,1,3,3,3-Hexafluoropropan-2-yl (±)1-(4-cyclopropylpiperazine-1-carbonyl)-6-azaspiro[2.5]octane-6-carboxylate], the inhibition at 1 µM turned out to be 100%. Same read-out and setting: the figure for `O=C(OC(C(F)(F)F)C(F)(F)F)N1CCC2(CC1)CC2C(=O)N1CCn2c(nnc2C2CC2)C1` (racemic) [Example 185, 1,1,1,3,3,3-hexafluoropropan-2-yl (+)1-(3-cyclopropyl-5,6,7,8-tetrahydro-[1,2,4]triazolo[4,3-a]pyrazine-7-carbonyl)-6-azaspiro[2.5]octane-6-carboxylate] is 90%.

The same test, now with this note: human PC3 membrane proteome.
Turning to `O=C(OC(C(F)(F)F)C(F)(F)F)N1CCC2(CC1)CC2C(=O)N1CCn2c(nnc2C2CC2)C1` (racemic) [Example 185, 1,1,1,3,3,3-hexafluoropropan-2-yl (+)1-(3-cyclopropyl-5,6,7,8-tetrahydro-[1,2,4]triazolo[4,3-a]pyrazine-7-carbonyl)-6-azaspiro[2.5]octane-6-carboxylate], the IC50 (commonly the concentration that gives 50% inhibition) worked out at 0.4 µM.

For the compound `O=C(Nc1ccon1)C1CC12CCN(C(=O)OC(C(F)(F)F)C(F)(F)F)CC2` (single isomer, unassigned) [Example 178, 1,1,1,3,3,3-hexafluoropropan-2-yl (R or S)-1-(isoxazol-3-ylcarbamoyl)-6-azaspiro[2.5]octane-6-carboxylate], the IC50 was 0.0027 µM.

`CS(=O)(=O)Nc1ccc(NC(=O)C2CC23CCN(C(=O)OC(C(F)(F)F)C(F)(F)F)CC3)cn1` (single isomer, unassigned) [Example 180, 1,1,1,3,3,3-hexafluoropropan-2-yl (R or S)-1-((6-(methylsulfonamido)pyridin-3-yl)carbamoyl)-6-azaspiro[2.5]octane-6-carboxylate] came in with an IC50 of 0.28 µM.

In turn, `O=C(O)COc1ccc(NC(=O)C2CC23CCN(C(=O)OC(C(F)(F)F)C(F)(F)F)CC3)cn1` (single isomer, unassigned) [Example 184, (R or S)-2-((5-(6-(((1,1,1,3,3,3-hexafluoropropan-2-yl)oxy)carbonyl)-6-azaspiro[2.5]octane-1-carboxamido)pyridin-2-yl)oxy)acetic acid] returned an IC50 of 1.4 µM. As to `O=C(NC1CCOCC1)[C@@H]1CC12CCN(C(=O)OC(C(F)(F)F)C(F)(F)F)CC2` [Example 9, 1,1,1,3,3,3-Hexafluoropropan-2-yl (R)-1-((tetrahydro-2H-pyran-4-yl)carbamoyl)-6-azaspiro[2.5]octane-6-carboxylate], the IC50 was determined as 0.727 µM.

The next test deals with T1, MAGL. Kind of test: In vitro competitive substrate hydrolysis enzyme activity assay (pNPA), HEK293 cell lysates. Set-up: expressed in transfected cells; host or cells: HEK293. As to conditions: HEK293 lysate. It is filed as biochemical. On the procedure:
HEK293 cell lysates expressing recombinant human MAGL enzyme and 4-nitrophenyl acetate (pNPA) substrate were diluted separately in 50 mM HEPES (pH 7.0) containing 200 mM KCl and 1 mM EDTA. Lysates (50 μL, ˜1.2 μg total protein) were preincubated with varying concentrations of inhibitors at 25° C. After 30 min, 2×pNPA substrate (50 μL, 2.5 mM) was added and the rate of substrate turnover was monitored by measuring the increase in absorbance at wavelength 405 nm for 20 minutes at 25° C. using a Biotek Neo2 plate reader. The mean velocity was converted to percent enzyme activity following background subtraction and normalization to DMSO controls. IC50 values were determined by fitting percent enzyme activities to a non-linear regression, 4-parameter, sigmoidal dose response function in Prism GraphPad.
In turn, `O=C(OC(C(F)(F)F)C(F)(F)F)N1CCC2(CC1)CC2C(=O)N1CCN(C2CC2)CC1` (racemic) [Example 34, 1,1,1,3,3,3-Hexafluoropropan-2-yl (±)1-(4-cyclopropylpiperazine-1-carbonyl)-6-azaspiro[2.5]octane-6-carboxylate] yielded an IC50 of 0.148 µM. `O=C(OC(C(F)(F)F)C(F)(F)F)N1CCC2(CC1)CC2C(=O)N1CCn2c(nnc2C2CC2)C1` (racemic) [Example 185, 1,1,1,3,3,3-hexafluoropropan-2-yl (+)1-(3-cyclopropyl-5,6,7,8-tetrahydro-[1,2,4]triazolo[4,3-a]pyrazine-7-carbonyl)-6-azaspiro[2.5]octane-6-carboxylate] displayed an IC50 of 0.862 µM. This IC50 lies about 5.8-fold higher than the previous one.

`CN(C(=O)C1CC12CCN(C(=O)OC(C(F)(F)F)C(F)(F)F)CC2)c1ccccn1` (single isomer, unassigned) [Example 46, 1,1,1,3,3,3-hexafluoropropan-2-yl (R or S)-1-(methyl(pyridin-2-yl)carbamoyl)-6-azaspiro[2.5]octane-6-carboxylate] returned an IC50 of 0.133 µM. `O=C(Nc1ccccn1)C1CC12CCN(C(=O)OC(C(F)(F)F)C(F)(F)F)CC2` (single isomer, unassigned) [Example 49, 1,1,1,3,3,3-hexafluoropropan-2-yl (R or S)-1-(pyridin-2-ylcarbamoyl)-6-azaspiro[2.5]octane-6-carboxylate] gave an IC50 of 0.003 µM.

In the case of `O=C(OC(C(F)(F)F)C(F)(F)F)N1CCC2(CC1)CC2C(=O)N1CCn2cc(C(F)(F)F)nc2C1` (single isomer, unassigned) [Example 52, 1,1,1,3,3,3-hexafluoropropan-2-yl (R or S)-1-(2-(trifluoromethyl)-5,6,7,8-tetrahydroimidazo[1,2-a]pyrazine-7-carbonyl)-6-azaspiro[2.5]octane-6-carboxylate], the IC50 turned out to be 0.155 µM. Against the preceding compound, the IC50 is about 52-fold higher. The same measure, in the same setting: the figure for `O=C(Nc1cnccn1)C1CC12CCN(C(=O)OC(C(F)(F)F)C(F)(F)F)CC2` (single isomer, unassigned) [Example 55, 1,1,1,3,3,3-hexafluoropropan-2-yl (R or S)-1-(pyrazin-2-ylcarbamoyl)-6-azaspiro[2.5]octane-6-carboxylate] is 0.028 µM; for `O=C(OC(C(F)(F)F)C(F)(F)F)N1CCC2(CC1)CC2C(=O)N1CCc2ncncc2C1` (single isomer, unassigned) [Example 61, 1,1,1,3,3,3-hexafluoropropan-2-yl (R or S)-1-(5,6,7,8-tetrahydropyrido[4,3-d]pyrimidine-6-carbonyl)-6-azaspiro[2.5]octane-6-carboxylate] it is 0.684 µM; for `O=C(OC(C(F)(F)F)C(F)(F)F)N1CCC2(CC1)CC2C(=O)N1CCc2nc(C3CC3)ncc2C1` (single isomer, unassigned) [Example 64, 1,1,1,3,3,3-hexafluoropropan-2-yl (R or S)-1-(2-cyclopropyl-5,6,7,8-tetrahydropyrido[4,3-d]pyrimidine-6-carbonyl)-6-azaspiro[2.5]octane-6-carboxylate] it is 0.103 µM. The same measure, in the same setting: the figure for `O=C(Nc1cncc(Cl)c1)C1CC12CCN(C(=O)OC(C(F)(F)F)C(F)(F)F)CC2` (single isomer, unassigned) [Example 67, 1,1,1,3,3,3-hexafluoropropan-2-yl (R or S)-1-((5-chloropyridin-3-yl)carbamoyl)-6-azaspiro[2.5]octane-6-carboxylate] is 0.0485 µM; for `Cc1ncccc1NC(=O)C1CC12CCN(C(=O)OC(C(F)(F)F)C(F)(F)F)CC2` (single isomer, unassigned) [Example 69, 1,1,1,3,3,3-hexafluoropropan-2-yl (R or S)-1-((2-methylpyridin-3-yl)carbamoyl)-6-azaspiro[2.5]octane-6-carboxylate] it is 0.0136 µM; for `Cc1ncccc1NC(=O)C1CC12CCN(C(=O)OC(C(F)(F)F)C(F)(F)F)CC2` (single isomer, unassigned) [Example 70, 1,1,1,3,3,3-hexafluoropropan-2-yl (R or S)-1-((2-methylpyridin-3-yl)carbamoyl)-6-azaspiro[2.5]octane-6-carboxylate] it is 0.985 µM. The same measure, in the same setting: the figure for `O=C(Nc1cccc(C(F)(F)F)n1)C1CC12CCN(C(=O)OC(C(F)(F)F)C(F)(F)F)CC2` (single isomer, unassigned) [Example 73, 1,1,1,3,3,3-hexafluoropropan-2-yl (R or S)-1-((6-(trifluoromethyl)pyridin-2-yl)carbamoyl)-6-azaspiro[2.5]octane-6-carboxylate] is 0.0003 µM. For the compound `O=C(Nc1ccc(C(F)(F)F)nc1)C1CC12CCN(C(=O)OC(C(F)(F)F)C(F)(F)F)CC2` (single isomer, unassigned) [Example 79, 1,1,1,3,3,3-hexafluoropropan-2-yl (R or S)-1-((6-(trifluoromethyl)pyridin-3-yl)carbamoyl)-6-azaspiro[2.5]octane-6-carboxylate], the IC50 stood at 0.851 µM.

Regarding `Cc1ccc(NC(=O)C2CC23CCN(C(=O)OC(C(F)(F)F)C(F)(F)F)CC3)cn1` (single isomer, unassigned) [Example 82, 1,1,1,3,3,3-hexafluoropropan-2-yl (R or S)-1-((6-methylpyridin-3-yl)carbamoyl)-6-azaspiro[2.5]octane-6-carboxylate], the IC50 is 0.118 µM. Still for that read-out and setting: the figure for `O=C(Nc1cnc(C(F)(F)F)nc1)C1CC12CCN(C(=O)OC(C(F)(F)F)C(F)(F)F)CC2` (single isomer, unassigned) [Example 100, 1,1,1,3,3,3-hexafluoropropan-2-yl (R or S)-1-((2-(trifluoromethyl)pyrimidin-5-yl)carbamoyl)-6-azaspiro[2.5]octane-6-carboxylate] is 0.736 µM.

The values above are taken from patent publication US20240018120A1, “MAGL INHIBITORS” (H. LUNDBECK A/S, priority 2020, published 2024).
